Laboratory results taken from patent publication US9145375B2, “Quinazolinone compounds” (PRANA BIOTECHNOLOGY LIMITED, priority 2008, dated 2015).

Experiments:
Type in all cases: in vitro ADME
CYP3A4 = CYP3A4 (Homo sapiens, UniProt P08684); assay: CYP450 isoform inhibition, recombinant enzymes, analysis by LCMS: CYP3A4; parameters: purchased
Description: (§1) CYP450 Isoform Inhibition
(§2) Microsomes containing individual recombinant human CYP450 enzymes (Supersomes™) were incubated in the presence of a fixed concentration of a probe substrate that forms a fluorescent metabolite upon CYP450-mediated metabolism.
(§3) A known inhibitor of each CYP450 isoform was included in each assay as a positive control and its IC50 was compared to literature values for acceptance of the assay.
(§4) The inherent fluorescence of the test compound was examined under the specific assay conditions for each isoform before and after the fluorometric assay to identify any compound-specific interference due to the parent compound or metabolic products. If the background fluorescence in these samples increased due to compound-specific interference, then the CYP450 inhibition samples were quantified using LC/MS assay.

CYP2C9 = target: T1, CYP2C9 (Homo sapiens, UniProt P11712); assay: CYP450 isoform inhibition, recombinant enzymes, analysis by LCMS: CYP2C9
T1 construct: using a specific substrate approach in human liver microsomes; from tissue; host or cells: human liver microsomes
T1 sequence (P11712 whole entry, canonical isoform): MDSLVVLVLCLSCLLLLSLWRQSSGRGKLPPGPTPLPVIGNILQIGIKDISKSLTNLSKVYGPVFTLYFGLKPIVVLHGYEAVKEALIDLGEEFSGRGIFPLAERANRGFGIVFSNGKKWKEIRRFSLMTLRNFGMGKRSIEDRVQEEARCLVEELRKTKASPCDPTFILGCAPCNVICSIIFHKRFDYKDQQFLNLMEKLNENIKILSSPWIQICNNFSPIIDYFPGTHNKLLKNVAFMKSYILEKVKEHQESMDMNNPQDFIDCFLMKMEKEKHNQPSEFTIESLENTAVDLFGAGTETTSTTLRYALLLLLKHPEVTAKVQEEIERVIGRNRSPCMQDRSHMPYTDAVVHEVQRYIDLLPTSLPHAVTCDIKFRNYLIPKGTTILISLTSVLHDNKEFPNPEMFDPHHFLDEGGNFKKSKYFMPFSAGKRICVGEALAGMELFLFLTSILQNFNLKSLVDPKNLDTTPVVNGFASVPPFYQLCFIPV
Description: as §1, §2, §3, §4

CYP2E1 = CYP2E1 (Homo sapiens, UniProt P05181); assay: CYP450 inhibition, specific substrate approach in human liver microsomes: CYP2E1; parameters: using a specific substrate approach in human liver microsomes; from tissue; host or cells: human liver microsomes
Chain of CYP2E1 (P05181 whole entry, canonical isoform): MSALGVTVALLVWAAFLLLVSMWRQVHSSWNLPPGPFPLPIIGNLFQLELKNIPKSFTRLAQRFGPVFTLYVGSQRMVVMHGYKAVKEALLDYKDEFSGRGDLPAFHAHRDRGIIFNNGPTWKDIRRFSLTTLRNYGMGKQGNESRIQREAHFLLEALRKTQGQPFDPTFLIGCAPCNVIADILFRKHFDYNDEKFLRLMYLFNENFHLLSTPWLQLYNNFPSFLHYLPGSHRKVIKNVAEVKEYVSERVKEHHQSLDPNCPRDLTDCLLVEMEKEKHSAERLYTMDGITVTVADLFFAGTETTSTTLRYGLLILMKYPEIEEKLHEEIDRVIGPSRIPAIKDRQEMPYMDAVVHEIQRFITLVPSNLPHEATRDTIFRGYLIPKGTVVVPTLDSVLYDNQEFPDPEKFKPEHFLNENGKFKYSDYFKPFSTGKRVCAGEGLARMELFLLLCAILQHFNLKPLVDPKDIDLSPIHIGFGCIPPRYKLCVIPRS
Description: CYP450 Isoform Inhibition Using a Specific Substrate Approach
The present study is a “Tier 2” screen to assess potential enzyme inhibition at a test compound concentration of 20 μM using a specific substrate approach in human liver microsomes.
The substrate specific enzyme inhibition study relies on the formation of a metabolite that is mediated by a specific CYP450 isoform using human liver microsomes. In the current study, the following reactions were monitored to assess interactions with specific CYP450 isoforms. A known inhibitor of each isoform was included in each assay as a positive control. The following IC50 values have been reported in the literature using equivalent assay conditions for each CYP450 isoform:
The reaction was initiated by the addition of an NADPH-regenerating system and was quenched by the addition of acetonitrile prior to determining the concentration (and apparent rate of formation) of the specific metabolite by LC/MS.
The IC50 was deemed to be the concentration at which there was a 50% reduction in the amount of metabolite formed, relative to the maximal extent of formation.

Chain of CYP3A4 (P08684 whole entry, canonical isoform): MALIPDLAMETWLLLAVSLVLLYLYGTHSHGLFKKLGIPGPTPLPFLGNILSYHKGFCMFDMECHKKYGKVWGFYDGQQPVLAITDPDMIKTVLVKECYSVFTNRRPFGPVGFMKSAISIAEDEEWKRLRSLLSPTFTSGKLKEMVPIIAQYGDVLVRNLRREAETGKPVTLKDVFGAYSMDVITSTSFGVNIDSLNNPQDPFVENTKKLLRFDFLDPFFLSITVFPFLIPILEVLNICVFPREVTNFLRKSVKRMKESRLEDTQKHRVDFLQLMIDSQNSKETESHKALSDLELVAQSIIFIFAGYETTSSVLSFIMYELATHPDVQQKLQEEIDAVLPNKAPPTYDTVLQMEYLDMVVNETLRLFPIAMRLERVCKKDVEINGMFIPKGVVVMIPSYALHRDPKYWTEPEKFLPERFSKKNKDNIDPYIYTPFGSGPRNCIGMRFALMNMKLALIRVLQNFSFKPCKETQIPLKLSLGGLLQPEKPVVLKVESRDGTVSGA

Row | SMILES | IC50 (CYP3A4) | IC50 (CYP2C9) | IC50 (CYP2E1)
1 | CNCc1nc2c(O)c(Cl)cc(Cl)c2c(=O)n1C [Compound F4161] | 13.8 µM | > 40 µM | 
2 | CCn1c(CN(C)C)nc2c(O)c(Cl)cc(Cl)c2c1=O.Cl [Compound F4268] |  |  | > 20 µM
